Assays:
[1] = DRUGMATRIX: Calcium Channel Type L, Benzothiazepine radioligand binding (ligand: [3H] Diltiazem); assay type: cell membranes, Rattus norvegicus, Wistar, Brain, Membrane; conditions: Not Active = under 50% inhibition at 10 µM
Leukotriene C4 synthase = target: T1, Leukotriene C4 synthase (Cavia porcellus, UniProt A6XA80); experiment: biochemical; assay type: tissue-based, Lung;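 also: enzyme inhibition assay of leukotriene C4 synthase, using LTA4 as the substrate; in other assays of this panel Not Active means under 50% inhibition at 10 µM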
T1 sequence (A6XA80 whole entry): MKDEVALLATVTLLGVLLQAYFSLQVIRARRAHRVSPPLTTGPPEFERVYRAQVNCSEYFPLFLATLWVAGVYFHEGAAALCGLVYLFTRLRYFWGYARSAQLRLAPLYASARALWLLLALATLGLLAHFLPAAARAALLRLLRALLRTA

[2] = target: T2, Cholecystokinin receptor type A (Homo sapiens, UniProt P32238); assay type: cell membranes, Membrane; conditions: 1321-n1; also: in other assays of this panel Not Active means under 50% inhibition at 10 µM
T2 sequence (P32238 whole entry): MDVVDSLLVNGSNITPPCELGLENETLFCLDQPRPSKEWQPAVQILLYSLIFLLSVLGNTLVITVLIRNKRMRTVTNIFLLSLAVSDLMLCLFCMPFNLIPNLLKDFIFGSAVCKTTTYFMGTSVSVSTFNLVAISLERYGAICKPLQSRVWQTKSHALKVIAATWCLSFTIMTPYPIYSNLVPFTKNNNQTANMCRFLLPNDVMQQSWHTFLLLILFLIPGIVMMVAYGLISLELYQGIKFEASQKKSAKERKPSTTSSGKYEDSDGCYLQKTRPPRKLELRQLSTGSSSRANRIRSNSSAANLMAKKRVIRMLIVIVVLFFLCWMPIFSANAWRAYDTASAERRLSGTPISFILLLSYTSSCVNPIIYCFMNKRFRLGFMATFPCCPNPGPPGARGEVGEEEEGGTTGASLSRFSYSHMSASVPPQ

[3] = DRUGMATRIX: Tumor Necrosis Factor (TNF), Non-Selective radioligand binding (ligand: [125I] TNF-alpha); assay type: cell membranes, Membrane; conditions: u-937; Not Active = under 50% inhibition at 10 µM
[4] = target: T3, Neuropeptide Y receptor type 2 (Homo sapiens, UniProt P49146); assay type: cell membranes, Membrane; conditions: kan-ts; also: in other assays of this panel Not Active means under 50% inhibition at 10 µM
T3 sequence (P49146 whole entry): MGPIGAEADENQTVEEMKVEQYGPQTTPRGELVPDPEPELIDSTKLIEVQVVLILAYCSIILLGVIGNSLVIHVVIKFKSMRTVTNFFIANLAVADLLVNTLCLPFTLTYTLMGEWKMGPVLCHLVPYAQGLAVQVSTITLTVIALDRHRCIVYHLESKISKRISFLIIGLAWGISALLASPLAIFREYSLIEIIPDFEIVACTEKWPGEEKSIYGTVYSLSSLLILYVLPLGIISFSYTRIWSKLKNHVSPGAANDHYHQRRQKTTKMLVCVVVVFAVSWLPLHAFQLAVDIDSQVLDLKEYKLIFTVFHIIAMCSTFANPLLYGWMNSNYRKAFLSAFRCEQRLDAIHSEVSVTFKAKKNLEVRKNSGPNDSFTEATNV

B2 bradykinin receptor = target: T4, B2 bradykinin receptor (Homo sapiens, UniProt P30411); assay type: cell membranes, Membrane; conditions: chem-1; also: in other assays of this panel Not Active means under 50% inhibition at 10 µM
T4 sequence (P30411 whole entry): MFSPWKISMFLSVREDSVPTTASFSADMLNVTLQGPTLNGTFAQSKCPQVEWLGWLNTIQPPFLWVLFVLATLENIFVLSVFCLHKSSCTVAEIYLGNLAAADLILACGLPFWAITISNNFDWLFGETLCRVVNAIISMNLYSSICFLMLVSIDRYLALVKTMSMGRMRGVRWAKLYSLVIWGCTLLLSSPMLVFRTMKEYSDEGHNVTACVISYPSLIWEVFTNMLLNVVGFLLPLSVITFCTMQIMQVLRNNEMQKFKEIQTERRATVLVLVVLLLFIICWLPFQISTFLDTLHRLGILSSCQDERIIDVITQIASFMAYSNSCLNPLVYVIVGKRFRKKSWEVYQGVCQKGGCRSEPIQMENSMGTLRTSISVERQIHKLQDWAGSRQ

[5] = target: T5, Cysteinyl leukotriene receptor 1 (Homo sapiens, UniProt Q9Y271); assay type: cell membranes, CHO-K1, Membrane; conditions: cho-k1; also: in other assays of this panel Not Active means under 50% inhibition at 10 µM
T5 sequence (Q9Y271 whole entry): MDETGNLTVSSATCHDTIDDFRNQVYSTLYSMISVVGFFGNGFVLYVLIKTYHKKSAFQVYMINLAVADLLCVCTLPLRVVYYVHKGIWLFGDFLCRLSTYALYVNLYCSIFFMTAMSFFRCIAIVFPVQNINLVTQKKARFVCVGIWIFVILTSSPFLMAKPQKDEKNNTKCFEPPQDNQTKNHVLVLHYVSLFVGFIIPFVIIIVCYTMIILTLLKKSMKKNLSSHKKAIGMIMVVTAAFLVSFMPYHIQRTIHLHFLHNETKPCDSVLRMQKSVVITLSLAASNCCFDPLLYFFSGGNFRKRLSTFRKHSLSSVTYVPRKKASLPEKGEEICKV

[6] = target: Voltage-gated inwardly rectifying potassium channel KCNH2 (Homo sapiens, UniProt Q12809); conditions: hek293; also: in other assays of this panel Not Active means under 50% inhibition at 10 µM
Chain of Voltage-gated inwardly rectifying potassium channel KCNH2 (Q12809 whole entry): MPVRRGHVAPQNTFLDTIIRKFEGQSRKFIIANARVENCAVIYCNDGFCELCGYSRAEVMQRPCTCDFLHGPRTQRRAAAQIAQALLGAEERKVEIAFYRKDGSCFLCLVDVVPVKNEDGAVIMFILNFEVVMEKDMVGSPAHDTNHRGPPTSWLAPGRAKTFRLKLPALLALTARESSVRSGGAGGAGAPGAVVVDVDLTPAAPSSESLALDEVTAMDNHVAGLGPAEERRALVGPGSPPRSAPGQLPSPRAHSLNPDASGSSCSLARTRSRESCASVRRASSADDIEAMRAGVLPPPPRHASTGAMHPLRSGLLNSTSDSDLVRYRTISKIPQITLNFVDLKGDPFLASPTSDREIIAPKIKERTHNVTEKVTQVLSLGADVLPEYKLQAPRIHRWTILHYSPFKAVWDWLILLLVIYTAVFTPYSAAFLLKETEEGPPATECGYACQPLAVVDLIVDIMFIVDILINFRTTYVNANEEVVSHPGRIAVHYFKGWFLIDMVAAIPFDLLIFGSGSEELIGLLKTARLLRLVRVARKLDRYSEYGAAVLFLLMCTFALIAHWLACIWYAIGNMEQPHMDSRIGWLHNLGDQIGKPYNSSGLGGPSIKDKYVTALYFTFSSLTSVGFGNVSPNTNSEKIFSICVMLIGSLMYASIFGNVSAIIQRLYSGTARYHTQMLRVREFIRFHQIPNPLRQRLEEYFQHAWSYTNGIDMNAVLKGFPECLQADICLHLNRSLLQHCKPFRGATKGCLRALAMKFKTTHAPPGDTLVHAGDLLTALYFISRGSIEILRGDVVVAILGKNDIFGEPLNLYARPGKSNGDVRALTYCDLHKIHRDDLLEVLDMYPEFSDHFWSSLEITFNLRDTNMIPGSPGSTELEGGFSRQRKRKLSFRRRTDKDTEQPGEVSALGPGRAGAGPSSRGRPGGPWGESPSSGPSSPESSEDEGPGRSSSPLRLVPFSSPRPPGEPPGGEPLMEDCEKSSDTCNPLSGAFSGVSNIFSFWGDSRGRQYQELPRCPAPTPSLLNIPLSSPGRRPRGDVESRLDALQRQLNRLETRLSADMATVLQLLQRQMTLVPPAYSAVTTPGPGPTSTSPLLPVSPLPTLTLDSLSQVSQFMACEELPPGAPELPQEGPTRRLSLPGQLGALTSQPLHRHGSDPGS

C[C@@H]1[C@H](O)[C@@H](C)/C=C/C=C/C=C/C=C/C=C/C=C/C=C/[C@H](O[C@@H]2O[C@H](C)[C@@H](O)[C@H](N)[C@@H]2O)C[C@@H]2O[C@](O)(C[C@@H](O)C[C@@H](O)[C@H](O)CC[C@@H](O)C[C@@H](O)CC(=O)O[C@H]1C)C[C@H](O)[C@H]2C(=O)O [AMPHOTERICIN B]
Not Active: IC50 [1] | Ki [1] | IC50 (Leukotriene C4 synthase) | IC50 [2] | IC50 [3] | Ki [3] | IC50 [4] | IC50 (B2 bradykinin receptor) | IC50 [5] | IC50 [6] | Ki [6]

O=C(O)c1ccccc1 [BENZOIC ACID]
Not Active: IC50 [1] | Ki [1] | IC50 (Leukotriene C4 synthase) | IC50 [2] | IC50 [3] | Ki [3] | IC50 [4] | IC50 (B2 bradykinin receptor) | IC50 [5] | IC50 [6] | Ki [6]

C[C@]12CC[C@@H](O)C[C@@H]1CC[C@@H]1[C@@H]2CC[C@]2(C)C(=O)CC[C@@H]12 [ANDROSTERONE]
Not Active: IC50 [1] | Ki [1] | IC50 (Leukotriene C4 synthase) | IC50 [2] | IC50 [3] | Ki [3] | IC50 [4] | IC50 (B2 bradykinin receptor) | IC50 [5] | IC50 [6] | Ki [6]

NCC(CC(=O)O)c1ccc(Cl)cc1 (stereo not drawn) [BACLOFEN]
Not Active: IC50 [1] | Ki [1] | IC50 (Leukotriene C4 synthase) | IC50 [2] | IC50 [3] | Ki [3] | IC50 [4] | IC50 (B2 bradykinin receptor) | IC50 [5] | IC50 [6] | Ki [6]

O=C(O)CO [GLYCOLIC ACID]
Not Active: IC50 [1] | Ki [1] | IC50 (Leukotriene C4 synthase) | IC50 [2] | IC50 [3] | Ki [3] | IC50 [4] | IC50 (B2 bradykinin receptor) | IC50 [5] | IC50 [6] | Ki [6]

O=C(NCCN1CCOCC1)c1ccc(Cl)cc1 [MOCLOBEMIDE]
Not Active: IC50 [1] | Ki [1] | IC50 (Leukotriene C4 synthase) | IC50 [2] | IC50 [3] | Ki [3] | IC50 [4] | IC50 (B2 bradykinin receptor) | IC50 [5] | IC50 [6] | Ki [6]

C=CCO [ALLYL ALCOHOL]
Not Active: IC50 [1] | Ki [1] | IC50 (Leukotriene C4 synthase) | IC50 [2] | IC50 [3] | Ki [3] | IC50 [4] | IC50 (B2 bradykinin receptor) | IC50 [5] | IC50 [6] | Ki [6]

CC(C)Cc1ccc([C@H](C)C(=O)O)cc1 [DEXIBUPROFEN]
Not Active: IC50 [1] | Ki [1] | IC50 (Leukotriene C4 synthase) | IC50 [2] | IC50 [3] | Ki [3] | IC50 [4] | IC50 (B2 bradykinin receptor) | IC50 [5] | IC50 [6] | Ki [6]

O=c1[nH]cnc2c1ncn2[C@H]1CC[C@@H](CO)O1 [DIDANOSINE]
Not Active: IC50 [1] | Ki [1] | IC50 (Leukotriene C4 synthase) | IC50 [2] | IC50 [3] | Ki [3] | IC50 [4] | IC50 (B2 bradykinin receptor) | IC50 [5] | IC50 [6] | Ki [6]

CC1(COc2ccc(CC3SC(=O)NC3=O)cc2)CCCCC1 (stereo not drawn) [CIGLITAZONE]
Not Active: IC50 [1] | Ki [1] | IC50 (Leukotriene C4 synthase) | IC50 [2] | IC50 [3] | Ki [3] | IC50 [4] | IC50 (B2 bradykinin receptor) | IC50 [5] | IC50 [6] | Ki [6]

CC(=O)Nc1ccc2c(c1)Cc1ccccc1-2 [2-ACETYLAMINOFLUORENE]
Not Active: IC50 [1] | Ki [1] | IC50 (Leukotriene C4 synthase) | IC50 [2] | IC50 [3] | Ki [3] | IC50 [4] | IC50 (B2 bradykinin receptor) | IC50 [5] | IC50 [6] | Ki [6]

C[C@H](C(=O)O)c1ccc2oc(-c3ccc(F)cc3)nc2c1 [FLUNOXAPROFEN]
Not Active: IC50 [1] | Ki [1] | IC50 (Leukotriene C4 synthase) | IC50 [2] | IC50 [3] | Ki [3] | IC50 [4] | IC50 (B2 bradykinin receptor) | IC50 [5] | IC50 [6] | Ki [6]

CC(C)Cn1cnc2c(N)nc3ccccc3c21 [IMIQUIMOD]
Not Active: IC50 [1] | Ki [1] | IC50 (Leukotriene C4 synthase) | IC50 [2] | IC50 [3] | Ki [3] | IC50 [4] | IC50 (B2 bradykinin receptor) | IC50 [5] | IC50 [6] | Ki [6]

From ChEMBL document CHEMBL1909046, “DrugMatrix in vitro pharmacology data”
